Source: patent US20260345624A1, “TREATMENT OF PROSTATE CANCER BY PROMOTING PDE4D7” (KONINKLIJKE PHILIPS N.V., priority 2022, published 2026)
“Also recorded” adds a separate entry of the source.

What was measured:
[1] = tested on: cAMP at cytosol of P1 LNCaPs; experiment: cAMP FRET (CUTie) in cytosol of P1 LNCaP; assay type: cell-based; settings: rolipram
Protocol: (§1) FIG. 18: Influence of PDE4D7 expression on cAMP dynamics within LNCaPs. Analysis of FRET ratio (YFP/CFP) at cytosol of WT (A) or P1 (C) LNCaPs, or at membrane of WT (B) or P1 (D) LNCaPs upon treatment with rolipram or combined treatment of forskolin+IBMX. (E & F) Real-time growth analysis of WT (G) and P1 (H) cells upon treatment with PDE4 activator MR-L2 (1-10 μM). Slope analysis from 0-48 post-treatment. Mean+/−SEM, N=3, **p<0.01, ***p<0.001.
(§2) Genetically encoded cAMP-fluorescent resonance energy transfer (FRET) probes were used to investigate CAMP dynamics at subcellular regions in WT and P1 LNCaPs. […] CUTie probes targeting the plasma-membrane (AKAP-79) or cytosol (CYTO-pDUAL) were obtained from the Zaccolo lab (REF). […] Given that PDE4D7 is known to be substantially membrane located [FIG. 1C]

[2] = tested on: cAMP at membrane of WT LNCaPs; experiment: cAMP FRET (CUTie) at plasma membrane of WT LNCaP; assay type: cell-based; settings: rolipram
Protocol: as §1, §2

[3] = tested on: cAMP at membrane of P1 LNCaPs; experiment: cAMP FRET (CUTie) at plasma membrane of P1 LNCaP; assay type: cell-based; settings: rolipram
Protocol: as §1, §2

[4] = tested on: cAMP at cytosol of WT LNCaPs; experiment: cAMP FRET (CUTie) in cytosol of WT LNCaP; assay type: cell-based; settings: rolipram
Protocol: as §1, §2

PCa = settings: He et al., 2019; cited from earlier work
[5] = tested on: PDE4D7-knockdown LNCaP P1 cells; experiment: xCELLigence real-time proliferation of PDE4D7-knockdown P1 LNCaP cells; assay type: cell-based; settings: for growth inhibition independent of PDE4D7 expression, P1: summary statement, WT vs P1
Source text: Stable shRNA-mediated lentiviral transduced LNCaP cell lines were generated by AMSBIO (Table 1). Briefly, shRNA-PDE4D7 was cloned into a lentivector and delivered into LNCaP clone FGC cells (ATCC) via lentivirus (MOI=10). Cells were maintained in puromycin-supplemented medium prior to selection of stably transduced cells. A stable shRNA-PDE4D7 LNCaP cell line was then re-transduced with lentivirus delivering PDE4D7 to generate a re-introduced cell line. Scrambled-shRNA was used as a control. All cells were cultured in RPMI 1640 medium (Gibco D), supplemented with 10% (v/v) foetal bovine serum, 1% (v/v) L-Glutamine and 1% (v/v) penicillin/streptomycin, and stored within a 37 °C incubator with 5% CO2.
(§3) xCELLigence Real-Time Cell Analysis (RTCA)
(§4) Real-time cell growth was analysed using the xCELLigence RTCA system (Agilent), which measures real-time cell adhesion across gold microelectrode biosensors on 96 well electronic plates (E-plates) within a 37 °C incubator with 5% CO2. Cellular adhesion influences electrical impedance which is converted into the cell index (CI) via RTCA software. Initial background measurements were recorded with 100 μL RPMI 1640 medium, followed by addition of 100 μL LNCaP cell suspension (10,000 cells/wells) for measurement of CI over time. Approximately 24 h after seeding, cells were treated with specified concentrations of drugs. Negative controls containing either 0.1% DMSO or untreated cells were also included. CI was transformed to normalised CI via the RTCA software to timepoint of treatment.

LNCaP WT cells = experiment: xCELLigence real-time proliferation of WT LNCaP cells; assay type: cell-based; settings: for growth inhibition independent of PDE4D7 expression, WT: summary statement, WT vs P1; for WT LNCaP growth, strongest effect: enzalutamide 1 μM and above; for WT LNCaP cell proliferation: enzalutamide 0.1-30 μM, all concentrations tested
Protocol: as §3, §4

cAMP production = settings: Miller et al., 2013; cited from earlier work
mCRPC = settings: Lloyd et al., 2020; cited from earlier work
P1-TET4D7 LNCaP cells = experiment: Real-time growth of P1 LNCaP cells with Tet-On inducible PDE4D7; assay type: cell-based; settings: enzalutamide 10 μM, Tet-On doxycycline-induced PDE4D7
Protocol: as §3, §4
PDE4D7 (GenBank ID AF536976) sequence was first subcloned into lentivirus vectors with CMV (LVR-1001-pLV-CMV-PGK-Puro) and then into Tet-On inducible vector pLV-tet-on-3G-P2A-Puro, LNCaP-shRNA P1 cells were maintained in RPMI1640 medium supplemented with 10% (v/v) foetal bovine serum, 1% (v/v) L-Glutamine and 1% (v/v) penicillin/streptomycin, and infected with Tet-On inducible lentivirus at MOI=5-10 in the presence of 8 μg/ml polybrene. […]

advanced PCa = settings: in combination with docetaxel; cited from earlier work

For `COc1ccc(C2CNC(=O)C2)cc1OC1CCCC1` (centres unmarked) [rolipram], the “FRET ratio, cytosol, P1” value [1] was “no observable difference”, the “FRET ratio / cAMP, membrane, WT” value [2] was “downregulation of FRET ratio in the membrane compartment of WT LNCaPs, indicating an increase in cAMP concentration” and the “FRET ratio, membrane, P1” value [3] was “no obvious difference in FRET ratio”. For the same compound, the “FRET ratio, cytosol, WT” value [4] was “no observable difference”.

In the case of `CN(C)C(=N)N=C(N)N` [metformin, Metformin], the “overall survival/time to recurrence in PCa” value (PCa) is listed as “enhance overall survival/time to recurrence”, the “treatment/reduction of PCa tumours” value (PCa) is listed as “no evidence of it treating/reducing the PCa tumours itself” and the “growth inhibition of P1 cells” value ([5]; metformin, only at highest concentrations tested (0-25 μM)) is listed as “significant inhibition was only observed in P1 cells at highest concentrations tested”. For the same compound, the “growth inhibition independent of PDE4D7 expression, P1” value [5] was “reduce tumor growth independent of PDE4D7 expression levels; also recorded: inhibit LNCaP cell growth irrespective of PDE4D7 expression status”, the “growth of WT cells” value (LNCaP WT cells; metformin, all concentrations (0-25 μM)) was “significantly reducing growth of WT cells at all concentrations” and the “growth inhibition independent of PDE4D7 expression, WT” value (LNCaP WT cells) was “reduce tumor growth independent of PDE4D7 expression levels; also recorded: inhibit LNCaP cell growth irrespective of PDE4D7 expression status”. The cAMP production (cAMP production) was “decrease CAMP production”.

With `C[C@@H]1COCCN1c1cc(C2([S@](C)(=N)=O)CC2)nc(-c2cc[nH]c3nccc2-3)n1` [ceralasertib, Ceralasertib] the “sensitivity from growth curves, PDE4D7-knockdown (compared with WT)” value ([5]; ceralasertib 0-30 μM) was “highly susceptible to ATR-inhibition via ceralasertib”, the “growth inhibition, P1” value ([5]; ceralasertib 10-30 μM) was “most significant growth inhibition” and the “sensitivity of PDE4D7-knockdown cells” value ([5]; ceralasertib 10-30 μM) was “extremely sensitive to ATR inhibition via ceralasertib”. The “growth inhibition independent of PDE4D7 expression, P1” value [5] was “reduce tumor growth independent of PDE4D7 expression levels; also recorded: inhibit LNCaP cell growth irrespective of PDE4D7 expression status”, the “growth inhibition, WT” value (LNCaP WT cells; ceralasertib 10-30 μM) was “most significant growth inhibition” and the “growth inhibition independent of PDE4D7 expression, WT” value (LNCaP WT cells) was “reduce tumor growth independent of PDE4D7 expression levels; also recorded: inhibit LNCaP cell growth irrespective of PDE4D7 expression status”. The “synergistic effects in combination with olaparib” value (mCRPC) was “enhance synergistic effects in combination with olaparib in mCRPC; also recorded: enhance synergistic effects in combination with olaparib in metastatic CRPC”.

For `CNC(=O)c1ccc(N2C(=S)N(c3ccc(C#N)c(C(F)(F)F)c3)C(=O)C2(C)C)cc1F` [enzalutamide], the “sensitivity to enzalutamide upon PDE4D7 re-expression” value (P1-TET4D7 LNCaP cells) was “restored sensitivity to enzalutamide; also recorded: rescued upon PDE4D7 re-expression”, the “P1 LNCaP growth vs DMSO control” value ([5]; enzalutamide, higher concentrations up to 30 μM) was “significantly enhanced growth; also recorded: increased growth at higher concentrations” and the “P1 LNCaP proliferation” value ([5]; enzalutamide, increasing doses 0-30 μM) was “minimal reductions in cell proliferation”. The “resistance to enzalutamide upon PDE4D7 knockdown” value ([5]; overall conclusion, 0-30 μM) was “confers resistance to anti-androgens such as enzalutamide”, the “WT LNCaP growth, strongest effect” value (LNCaP WT cells) was “least growth” and the “WT LNCaP growth, strongest effect” value (LNCaP WT cells; listed as Enzalutamide) was “most profound effects”. For the same compound, the “WT LNCaP cell proliferation” value (LNCaP WT cells) was “significant decrease in WT LNCaP cell proliferation” and the “WT LNCaP cell proliferation” value (LNCaP WT cells; listed as Enzalutamide) was “significant decrease in WT LNCaP cell proliferation at all concentrations tested”.

In the case of `COC(=O)Nc1nc2ccc(C(=O)c3ccccc3)cc2[nH]1` [mebendazole], the “effect on P1 cells” value ([5]; mebendazole 1-10 μM, compared with WT) is given as “far more substantial and more significant, with initiation of immediate cell death in the cells at both concentrations; also recorded: PDE4D7-knockdown confers sensitivity to mebendazole in comparison to WT LNCaPs”, the “potential in advanced PCa treatment” value (advanced PCa) is given as “showed potential in advanced PCa treatment in combination with docetaxel” and the WT cell growth (LNCaP WT cells; mebendazole 1-10 μM) is given as “significant downregulation of cell growth in a dose-dependent manner”.
